For assay [1], the system named is Candida albicans strain #40 fimbriae (enriched fimbriae EF, 66 kDa fimbrial subunit/adhesin protein). As to the kind of experiment: Thin-layer chromatography plate binding assay of fimbriae to glycosphingolipids. The conditions noted are these: 10 μg GSL per spot; 100 μg EF/ml; detected with mAb Fm16. How it is done: Bound fimbriae on the TLC plates were visualized with a Protein G affinity-purified anti-C. albicans fimbriae monoclonal antibody, Fm16, obtained from ascites tumor in Balb/c mice as described below and a goat anti-mouse IgG alkaline phosphatase. […] (Lane 2).
The thin-layer chromatography (TLC) plate binding assay was performed as described by Baker et al. (1) with minor modifications. Aluminum-backed silica gel Si60 high performance TLC plates (Merck Kieselgel Si60, no fluorescence indicator, E. Merck, Darmstadt, Germany) were cut to produce 8×2.5 cm plates which were chromatographed with 100% methanol to the top of the plate to remove impurities and the plates were air dried. Glycosphingolipids (GSLs) (10 μg of each GSL) were loaded 1.0 cm above the base of the plate. The following glycosphingolipids purchased from Sigma Co. (St. Louis, Mo.) were used: mono-sialoganglioside (M-GM1), asialoganglioside GM1 (asialo-GM1), asialoganglioside GM2 (asialo-GM2), lactosylcerebroside (LCS), ceramide trihexoside (CTH). GSLs were separated on the TLC plates in chloroform-methanol-water (65:35:8, v/v/v) and air dried. One set of plates was sprayed with 10% sulphuric acid in ethanol and heated at 100°-150° C. for 5-10 min to char the GSLs for visual detection, and the other set was used for the fimbrial binding assay. The four corners of the plate were bent to 90° and the remainder of the assay was done with the TLC plates inverted in all solutions and at room temperature in an incubator shaker (model G25 Gyroshaker, New Brunswick Scientific, New Jersey, U.S.A.) at 20 rpm agitation. The TLC plate was blocked with 50 mM tris-hydroxy-methyl aminomethane pH 7.5 containing 150 mM NaCl (TBS), 0.25% (w/v) gelatin, 3% (w/v) BSA, 5 mM EDTA and 0.05% (v/v) Nonidet P40 in a glass petri dish for 2 hr at room temperature. The blocking solution was aspirated and 10 ml of EF (100 μg EF/ml in 100 mM TBS, pH 7.5) was then added. The fimbriae were allowed to bind to GSLs for 2 hours at room temperature. The plates were gently washed (2×5 min) with 10 ml of 100 mM TBS containing 0.1% (v/v) Tween 20 (TBST). The murine anti-EF monoclonal antibody, Fm16, was diluted 1:200 with TBST and 10 ml was added to the TLC plates. The solution was incubated for 1 hour at room temperature. Unbound antibodies were removed by washing the plates with 10 ml of TBST (2×5 min). The plate was then incubated with 10 ml of goat anti-mouse immunoglobulin G alkaline phosphatase conjugate (Jackson Laboratories) diluted 1:5,000 with TBST for 1 hour at room temperature. The plates were washed (2×5 min.) with 10 ml of TBST. The alkaline phosphatase activity was localized with Nitro Blue Tetrazolium chloride (NBT) and 5-bromo-4-chloro-3-indolyl phosphate (BCIP) dissolved in 100 mM Tris buffer, pH 9.5 containing 100 mM NaCl and 5 mM MgCl2. Color development was quenched by rinsing the TLC plate with deionized water and submerging the plate into a 150 mM EDTA solution pH 8.0 for 3-5 min. The plates were air dried, stored in plastic in the dark until they were photographed.

Assay [2] has as its system Candida albicans fimbriae (binding to human BECs). The assay can be described thus: Inhibition of fimbriae binding to human buccal epithelial cells (BECs). In kind it is cell-based. The following applies: fimbriae 50 μg preincubated with competitor 1 h at 37° C., 2.0×10^5 BECs. The protocol:
The percent inhibition is the inhibition of binding in the presence of the competing antigens with respect to binding observed in the absence of any competitors.
The fimbrial adherence assay was performed using a Manifold filtration apparatus equipped with individual vacuum stopcocks (Model FH 225V, Hoefer Scientific Instruments). Polycarbonate filters, 12 μm pore size (Nucleopore Costar Corp.), were pre-incubated overnight at 4° C. with 50 ml of PBS pH 7.2, containing 0.45% (v/v) Tween 20. The pretreated filters were placed into each chamber and washed with 2.5 ml of PBS. 1 ml containing 2.0×10^5 BECs in PBS was added to each chamber. Enriched fimbriae (100 μl/chamber, ranging from 0 to 80 μg fimbriae protein/ml) in PBS containing 0.05% (v/v) Tween-20 was added to each chamber and incubated with the BECs for 1.5 hours at room temperature. Unbound fimbriae were removed with washes of 2.5 ml of PBS. Mouse anti-C. albicans fimbriae monoclonal antibody (ascites fluid diluted 1:3000 with PBS) was added to the BECs (1.2 ml/chamber) and incubated for 1.5 hour at room temperature. BECs were washed five times with 2.5 ml of PBS. Goat anti-mouse IgG(H+L)-peroxidase conjugates (Jackson Laboratories) diluted 1:5000 with PBS was added (1.0 ml/chamber) and incubated for another hour at room temperature. The cells were then washed seven times with 2.5 ml/chamber of PBS. The polycarbonate filters containing BECs were removed from the filtration manifold and placed into glass scintillation vials. The horseradish peroxidase substrate solution (ABTS) was added to each vial (1 ml/vial) and incubated for 30 min at room temperature on a shaker at 100 rpm. The reaction was stopped by the addition of 4 mM sodium azide (200 μl/vial). The substrate solution was pipetted into Eppendorf tubes and centrifuged at 5,000 g for 3 minutes. Aliquots of the supernatants were pipetted into microtiter wells (200 μl/well) and the resulting absorbance at 405 nm was recorded with a Titertek Multiskan Plus microplate recorder. […]

Results on 2 substances are retold here after patent US5641760A, “Method of treating candida infection” (Pence, Inc., priority 1994, dated 1997).

For the substance “ceramide trihexoside [CTH, ceramide trihexoside [aGal(1-4)βGal(1-4)βGlc(1-1)Cer]]”, in assay [1], the “Binding of C. albicans fimbriae to glycosphingolipid on TLC plate” value is “failed to bind”. Also, the “Inhibition of C. albicans fimbriae binding to BECs” value in assay [2] is “failed to inhibit”.

With “gangliotetraosylceramide: βGal(1-3)βGalNAc(1-4)βGal(1-4)βGlc(1-1)Cer [asialo-GM1]”, the “Binding of C. albicans fimbriae to glycosphingolipid on TLC plate” value in assay [1] is listed as “bind specifically”. Moreover, the “Inhibition of C. albicans fimbriae binding to BECs” value in assay [2] (competitor concentration not stated) came to 80%.
